# Measured values taken from ChEMBL document CHEMBL3044676, “Effect of Antibiotics on Formation of Aerial Mycelium and Production of Phytotoxins in Streptomyces spp” (2003).
# Active and inactive are the calls of the source. The rule behind the calls is not given here.
# Experiments:
# [1] = system: Streptomyces scabiei; assay: Antimicrobial activity against Streptomyces scabiei ATCC 4917314 assessed as inhibition of aerial mycelial growth at 4 ug/disk after 5 days by paper disk method; type: functional; settings: for zone of inhibition at 4 µg/disc: ATCC 4917314, 120 h, read-out: DIZ
# [2] = system: Streptomyces scabiei; assay: Antimicrobial activity against Streptomyces scabiei ATCC 4917314 assessed as inhibition of aerial mycelial growth at 0.04 ug/disk after 5 days by paper disk method; type: functional; settings: for zone of inhibition at 0.04 µg/disc: ATCC 4917314, 120 h, read-out: DIZ
# [3] = system: Streptomyces scabiei; assay: Antimicrobial activity against Streptomyces scabiei ATCC 4917314 assessed as inhibition of aerial mycelial growth at 0.40 ug/disk after 5 days by paper disk method; type: functional; settings: for zone of inhibition at 0.4 µg/disc: ATCC 4917314, 120 h, read-out: DIZ
# [4] = system: Streptomyces acidiscabies; assay: Antimicrobial activity against Streptomyces acidiscabies ATCC 4900315 assessed as inhibition of aerial mycelial growth at 4 ug/disk after 5 days by paper disk method; type: functional; settings: for zone of inhibition at 4 µg/disc: ATCC 4900315, 120 h, read-out: DIZ
# [5] = system: Streptomyces acidiscabies; assay: Antimicrobial activity against Streptomyces acidiscabies ATCC 4900315 assessed as inhibition of aerial mycelial growth at 0.04 ug/disk after 5 days by paper disk method; type: functional
# [6] = system: Streptomyces alboniger; assay: Antimicrobial activity against Streptomyces alboniger IFO 12738 assessed as inhibition of aerial mycelial growth at 0.04 ug/disk after 5 days by paper disk method; type: functional, organism-based
# [7] = system: Streptomyces acidiscabies; assay: Antimicrobial activity against Streptomyces acidiscabies ATCC 4900315 assessed as inhibition of aerial mycelial growth at 0.4 ug/disk after 5 days by paper disk method; type: functional; settings: for zone of inhibition at 0.4 µg/disc: ATCC 4900315, 120 h, read-out: DIZ
# [8] = system: Streptomyces alboniger; assay: Antimicrobial activity against Streptomyces alboniger IFO 12738 assessed as inhibition of aerial mycelial growth at 0.4 ug/disk after 5 days by paper disk method; type: functional; settings: for zone of inhibition at 0.4 µg/disc: IFO 12738, 120 h, read-out: DIZ
# [9] = system: Streptomyces alboniger; assay: Antimicrobial activity against Streptomyces alboniger IFO 12738 assessed as inhibition of aerial mycelial growth at 4 ug/disk after 5 days by paper disk method; type: functional
# [10] = system: Streptomyces acidiscabies; assay: Antimicrobial activity against Streptomyces acidiscabies ATCC 4900315 assessed as inhibition of growth at 4 ug/disk after 5 days by paper disk method; type: functional; settings: for zone of inhibition at 4 µg/disc: ATCC 4900315, 120 h, read-out: DIZ
# [11] = system: Streptomyces alboniger; assay: Antimicrobial activity against Streptomyces alboniger IFO 12738 assessed as inhibition of growth at 4 ug/disk after 5 days by paper disk method; type: functional; settings: IFO 12738, 120 h, read-out: DIZ
# [12] = system: Streptomyces scabiei; assay: Antimicrobial activity against Streptomyces scabiei ATCC 4917314 assessed as inhibition of growth at 0.4 ug/disk after 5 days by paper disk method; type: functional; settings: for zone of inhibition at 0.4 µg/disc: ATCC 4917314, 120 h, read-out: DIZ
# [13] = system: Streptomyces scabiei; assay: Antimicrobial activity against Streptomyces scabiei ATCC 4917314 assessed as inhibition of growth at 4 ug/disk after 5 days by paper disk method; type: functional; settings: ATCC 4917314, 120 h, read-out: DIZ
# [14] = system: Streptomyces alboniger; assay: Antimicrobial activity against Streptomyces alboniger IFO 12738 assessed as inhibition of growth at 0.4 ug/disk after 5 days by paper disk method; type: functional; settings: IFO 12738, 120 h, read-out: DIZ
Compound,zone of inhibition at 4 µg/disc [1],zone of inhibition at 0.4 µg/disc [3],diameter of the inhibition zone (DIZ) [5],diameter of the inhibition zone (DIZ) [6],diameter of the inhibition zone (DIZ) [7],diameter of the inhibition zone (DIZ) [8],diameter of the inhibition zone (DIZ) [9],diameter of the inhibition zone (DIZ) [2],zone of inhibition at 4 µg/disc [4],zone of inhibition at 0.4 µg/disc [7],zone of inhibition at 4 µg/disc [10],diameter of the inhibition zone (DIZ) [3],other results
C[C@@H]1O[C@@H]1P(=O)(O)O [FOSFOMYCIN],17 mm,16 mm,inactive,inactive,inactive,inactive,inactive,,,,,,zone of inhibition at 0.04 µg/disc [2]: 16 mm; diameter of the inhibition zone (DIZ) [4]: inactive
CO[C@@H]1[C@@H](OC(N)=O)[C@@H](O)[C@H](Oc2ccc3c(O)c(NC(=O)c4ccc(O)c(CC=C(C)C)c4)c(=O)oc3c2C)OC1(C)C [NOVOBIOCIN],44 mm,28 mm,inactive,inactive,,,,inactive,39 mm,14 mm,18 mm,,zone of inhibition at 4 µg/disc [11]: 21 mm; zone of inhibition at 0.4 µg/disc [12]: 17 mm; zone of inhibition at 4 µg/disc [13]: 26 mm; zone of inhibition at 0.4 µg/disc [8]: 11 mm
CO[C@H]1/C=C/O[C@@]2(C)Oc3c(C)c(O)c4c(O)c(cc(O)c4c3C2=O)NC(=O)/C(C)=C\C=C\[C@H](C)[C@H](O)[C@@H](C)[C@@H](O)[C@@H](C)[C@H](OC(C)=O)[C@@H]1C [RIFAMYCIN],11 mm,,inactive,inactive,inactive,,,inactive,12 mm,,,inactive,zone of inhibition at 0.4 µg/disc [14]: 11 mm; diameter of the inhibition zone (DIZ) [10]: inactive; diameter of the inhibition zone (DIZ) [12]: inactive; zone of inhibition at 0.4 µg/disc [8]: 21 mm
CO[C@@H]1[C@H](O)C[C@@H](O[C@@H]2C[C@H](Oc3cc4cc5c(c(O)c4c(O)c3C)C(=O)[C@@H](O[C@H]3C[C@@H](O[C@H]4C[C@@H](O[C@H]6C[C@](C)(O)[C@@H](OC(C)=O)[C@H](C)O6)[C@H](O)[C@@H](C)O4)[C@H](O)[C@@H](C)O3)[C@H]([C@H](OC)C(=O)[C@@H](O)[C@@H](C)O)C5)O[C@H](C)[C@@H]2OC(C)=O)O[C@@H]1C [CHROMOMYCIN A3],11 mm,,,inactive,,inactive,inactive,inactive,26 mm,19 mm,,inactive,"zone of inhibition at 0.04 µg/disc ([5]; ATCC 4900315, 120 h, read-out: DIZ): 13 mm"
C=C(NC(=O)C(=C)NC(=O)c1csc(C2=N[C@@H]3c4csc(n4)[C@H]4NC(=O)c5csc(n5)[C@H]([C@](C)(O)[C@@H](C)O)NC(=O)[C@H]5CSC(=N5)/C(=C/C)NC(=O)[C@H]([C@@H](C)O)NC(=O)c5csc(n5)[C@]3(CC2)NC(=O)[C@H](C)NC(=O)C(=C)NC(=O)[C@H](C)NC(=O)[C@H]([C@@H](C)CC)N[C@@H]2C=Cc3c([C@H](C)O)cc(nc3[C@H]2O)C(=O)O[C@@H]4C)n1)C(N)=O [THIOSTREPTON],12 mm,,inactive,inactive,,inactive,inactive,inactive,24 mm,11 mm,13 mm,inactive,zone of inhibition at 0.4 µg/disc [14]: 14 mm
CO[C@@H]1[C@@H](O[C@@H]2O[C@H](C)[C@@H](O[C@H]3C[C@@](C)(O)[C@@H](OC(=O)CC(C)C)[C@H](C)O3)[C@H](N(C)C)[C@H]2O)[C@@H](CC=O)C[C@@H](C)[C@@H](O)/C=C/C=C/C[C@@H](C)OC(=O)C[C@H]1OC(C)=O [JOSAMYCIN],29 mm,17 mm,inactive,inactive,,inactive,,,17 mm,13 mm,10 mm,,"zone of inhibition at 0.04 µg/disc [2]: 15 mm; zone of inhibition at 4 µg/disc [11]: 14 mm; zone of inhibition at 0.4 µg/disc [12]: 11 mm; zone of inhibition at 4 µg/disc [13]: 21 mm; zone of inhibition at 4 µg/disc ([9]; IFO 12738, 120 h, read-out: DIZ): 15 mm"
COc1ccc(C[C@H](N)C(=O)N[C@H]2[C@@H](O)[C@H](n3cnc4c(N(C)C)ncnc43)O[C@@H]2CO)cc1 [PUROMYCIN],,,inactive,inactive,inactive,inactive,inactive,inactive,20 mm,,,inactive,diameter of the inhibition zone (DIZ) [1]: inactive
